Results reported in paper PMC11509018, “Evaluation of the Role of Tanshinone I in an In Vitro System of Charcot-Marie-Tooth Disease Type 2N” (International Journal of Molecular Sciences, 2024).
“Also recorded” adds a separate entry of the source.

Target: T1, AlaRS^R329H (Homo sapiens, UniProt P49588, R329H)
T1 construct: made in house; host or cells: E. coli BL21 (DE3), pET-21a
T1 sequence (P49588 1-968 R329H): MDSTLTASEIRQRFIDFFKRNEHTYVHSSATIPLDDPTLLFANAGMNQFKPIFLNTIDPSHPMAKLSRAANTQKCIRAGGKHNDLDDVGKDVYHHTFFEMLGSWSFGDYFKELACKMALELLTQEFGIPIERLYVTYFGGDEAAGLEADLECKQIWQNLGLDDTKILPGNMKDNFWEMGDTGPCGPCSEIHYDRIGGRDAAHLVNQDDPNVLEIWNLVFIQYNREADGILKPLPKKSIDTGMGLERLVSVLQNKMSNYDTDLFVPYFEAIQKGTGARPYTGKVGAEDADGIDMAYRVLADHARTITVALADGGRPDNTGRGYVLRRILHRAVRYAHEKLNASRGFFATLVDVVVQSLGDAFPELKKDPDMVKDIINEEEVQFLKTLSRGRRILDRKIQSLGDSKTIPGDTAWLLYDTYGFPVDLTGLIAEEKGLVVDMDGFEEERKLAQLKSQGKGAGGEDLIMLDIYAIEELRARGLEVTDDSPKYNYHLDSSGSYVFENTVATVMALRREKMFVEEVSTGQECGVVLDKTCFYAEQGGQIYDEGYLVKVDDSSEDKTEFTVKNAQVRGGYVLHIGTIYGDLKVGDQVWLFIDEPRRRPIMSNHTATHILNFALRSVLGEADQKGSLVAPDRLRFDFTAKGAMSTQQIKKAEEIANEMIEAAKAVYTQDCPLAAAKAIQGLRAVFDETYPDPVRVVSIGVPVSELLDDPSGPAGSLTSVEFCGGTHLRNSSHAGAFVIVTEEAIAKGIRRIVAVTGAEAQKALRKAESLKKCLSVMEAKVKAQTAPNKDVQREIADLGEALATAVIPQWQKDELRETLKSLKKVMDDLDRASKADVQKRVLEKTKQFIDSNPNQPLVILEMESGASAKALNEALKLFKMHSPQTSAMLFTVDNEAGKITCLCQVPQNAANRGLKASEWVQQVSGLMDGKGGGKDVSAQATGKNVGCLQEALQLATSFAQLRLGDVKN
Assay: Proteolytic digestion assay (trypsin, SDS-PAGE)
Conditions: 3 h
Method: To delve deeper into the impact of selected small molecules on the structural conformation of AlaRS^R329H proteins, a series of proteolysis experiments were conducted. The small molecules were incubated with AlaRS^R329H proteins at room temperature for three hours, followed by SDS-PAGE analysis to evaluate their effects on the distribution of the digestion fragments. […] The AlaRS^R329H proteins (in the presence and absence of Atazanavir sulfate, Tanshinone I, Hederacolchiside A1, and Hexylresorcinol) were incubated with trypsin at different concentrations for 3 h before the reactions were quenched, and the products were separated by SDS-PAGE.

## Cc1coc2c1C(=O)C(=O)c1c-2ccc2c(C)cccc12 [Tanshinone I]
  Effect on distribution of digestion fragments / conformation: markedly altered the digestion fragment pattern; also recorded: significant change in the distribution of the bands
